Legend:
Experiment in all cases: radiometric filter-binding kinase assay, Kinase HotSpot
Settings in all cases: compound 0.5 µM; ATP 10 µM
[1] = biological target: AXL (human) (UniProt P30530)
[2] = biological target: CAMK2A (human) (UniProt Q9UQM7)
[3] = biological target: CDK1 CCNA2 (human) (UniProt P06493+P20248)
[4] = biological target: CDK4 CCND3 (human) (UniProt P30281+P11802)
[5] = biological target: CDK6 CCND3 (human) (UniProt P30281+Q00534)
[6] = biological target: CDK9 CCNT1 (human) (UniProt P50750+O60563)
[7] = biological target: CHEK1 (human) (UniProt O14757)
[8] = biological target: CSNK1A1 (human) (UniProt P48729)
[9] = biological target: CSNK2A2 (human) (UniProt P19784)
[10] = biological target: EPHA8 (human) (UniProt P29322)
[11] = biological target: ERBB2 (human) (UniProt P04626)
[12] = biological target: FER (human) (UniProt P16591)
[13] = biological target: FLT3 (human) (UniProt P36888)
[14] = biological target: FYN (human) (UniProt P06241)
[15] = biological target: GRK4 (human) (UniProt P32298)
[16] = biological target: GRK5 (human) (UniProt P34947)
[17] = biological target: GRK6 (human) (UniProt P43250)
[18] = biological target: GSG2 (human) (UniProt Q8TF76)
[19] = biological target: GSK3B (human) (UniProt P49841)
[20] = biological target: MAPK11 (human) (UniProt Q15759)
[21] = biological target: MAPK12 (human) (UniProt P53778)
[22] = biological target: MAPK13 (human) (UniProt O15264)
[23] = biological target: MAPK14 (human) (UniProt Q16539)
[24] = biological target: MAPK3 (human) (UniProt P27361)
[25] = biological target: MAPK9 (human) (UniProt P45984)
[26] = biological target: MARK4 (human) (UniProt Q96L34)
[27] = biological target: MET (human) (UniProt P08581)
[28] = biological target: PBK (human) (UniProt Q96KB5)
[29] = biological target: PIM3 (human) (UniProt Q86V86)
[30] = biological target: PRKCG (human) (UniProt P05129)
[31] = biological target: PRKCI (human) (UniProt P41743)
[32] = biological target: PTK2B (human) (UniProt Q14289)
[33] = biological target: RAF1 (human) (UniProt P04049)
[34] = biological target: RET (human) (UniProt P07949)
[35] = biological target: RPS6KA4 KD2 (human) (UniProt O75676)
[36] = biological target: RPS6KA5 KD2 (human) (UniProt O75582)
[37] = biological target: SGK2 (human) (UniProt Q9HBY8)
[38] = biological target: SGK3 (human) (UniProt Q96BR1)
[39] = biological target: STK24 (human) (UniProt Q9Y6E0)
[40] = biological target: STK4 (human) (UniProt Q13043)
[41] = biological target: TYK2 JH1 catalytic (human) (UniProt P29597)
[42] = biological target: VRK1 (human) (UniProt Q99986)

Chain of CHEK1 (human) (O14757 whole entry, looked up): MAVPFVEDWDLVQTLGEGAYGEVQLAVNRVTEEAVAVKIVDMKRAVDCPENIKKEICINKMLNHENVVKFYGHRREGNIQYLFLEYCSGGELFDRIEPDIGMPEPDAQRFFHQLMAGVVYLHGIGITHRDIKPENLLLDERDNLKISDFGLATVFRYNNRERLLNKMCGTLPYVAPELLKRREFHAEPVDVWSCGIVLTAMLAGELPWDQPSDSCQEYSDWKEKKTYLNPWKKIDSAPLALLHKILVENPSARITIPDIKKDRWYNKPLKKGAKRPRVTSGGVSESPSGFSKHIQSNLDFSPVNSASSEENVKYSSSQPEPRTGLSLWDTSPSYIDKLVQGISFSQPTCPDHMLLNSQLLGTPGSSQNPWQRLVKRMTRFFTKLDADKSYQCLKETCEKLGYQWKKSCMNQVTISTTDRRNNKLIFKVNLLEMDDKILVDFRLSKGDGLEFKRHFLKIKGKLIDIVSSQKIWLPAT
Chain of GSK3B (human) (P49841 whole entry, looked up): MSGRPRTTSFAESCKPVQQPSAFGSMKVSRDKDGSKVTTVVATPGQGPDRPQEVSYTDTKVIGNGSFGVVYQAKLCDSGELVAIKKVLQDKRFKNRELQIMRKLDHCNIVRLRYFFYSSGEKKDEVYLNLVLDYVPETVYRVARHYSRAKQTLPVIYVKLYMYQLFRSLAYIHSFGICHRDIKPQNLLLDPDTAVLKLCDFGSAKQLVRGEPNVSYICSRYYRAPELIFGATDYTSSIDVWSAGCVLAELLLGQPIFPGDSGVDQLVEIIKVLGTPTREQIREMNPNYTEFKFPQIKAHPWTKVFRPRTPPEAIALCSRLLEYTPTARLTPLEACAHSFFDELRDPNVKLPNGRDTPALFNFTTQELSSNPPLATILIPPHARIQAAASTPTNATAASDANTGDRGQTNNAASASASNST
Chain of CSNK2A2 (human) (P19784 whole entry, looked up): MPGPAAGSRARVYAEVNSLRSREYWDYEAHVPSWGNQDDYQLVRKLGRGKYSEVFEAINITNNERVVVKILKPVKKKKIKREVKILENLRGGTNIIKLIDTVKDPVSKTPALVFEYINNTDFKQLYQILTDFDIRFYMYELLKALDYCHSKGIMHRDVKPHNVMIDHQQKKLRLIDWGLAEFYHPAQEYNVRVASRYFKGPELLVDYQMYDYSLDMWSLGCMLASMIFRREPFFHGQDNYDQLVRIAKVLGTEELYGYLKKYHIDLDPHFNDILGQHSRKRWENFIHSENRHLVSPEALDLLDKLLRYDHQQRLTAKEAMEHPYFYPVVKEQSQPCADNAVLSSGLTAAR
Chain of FLT3 (human) (P36888 whole entry, looked up): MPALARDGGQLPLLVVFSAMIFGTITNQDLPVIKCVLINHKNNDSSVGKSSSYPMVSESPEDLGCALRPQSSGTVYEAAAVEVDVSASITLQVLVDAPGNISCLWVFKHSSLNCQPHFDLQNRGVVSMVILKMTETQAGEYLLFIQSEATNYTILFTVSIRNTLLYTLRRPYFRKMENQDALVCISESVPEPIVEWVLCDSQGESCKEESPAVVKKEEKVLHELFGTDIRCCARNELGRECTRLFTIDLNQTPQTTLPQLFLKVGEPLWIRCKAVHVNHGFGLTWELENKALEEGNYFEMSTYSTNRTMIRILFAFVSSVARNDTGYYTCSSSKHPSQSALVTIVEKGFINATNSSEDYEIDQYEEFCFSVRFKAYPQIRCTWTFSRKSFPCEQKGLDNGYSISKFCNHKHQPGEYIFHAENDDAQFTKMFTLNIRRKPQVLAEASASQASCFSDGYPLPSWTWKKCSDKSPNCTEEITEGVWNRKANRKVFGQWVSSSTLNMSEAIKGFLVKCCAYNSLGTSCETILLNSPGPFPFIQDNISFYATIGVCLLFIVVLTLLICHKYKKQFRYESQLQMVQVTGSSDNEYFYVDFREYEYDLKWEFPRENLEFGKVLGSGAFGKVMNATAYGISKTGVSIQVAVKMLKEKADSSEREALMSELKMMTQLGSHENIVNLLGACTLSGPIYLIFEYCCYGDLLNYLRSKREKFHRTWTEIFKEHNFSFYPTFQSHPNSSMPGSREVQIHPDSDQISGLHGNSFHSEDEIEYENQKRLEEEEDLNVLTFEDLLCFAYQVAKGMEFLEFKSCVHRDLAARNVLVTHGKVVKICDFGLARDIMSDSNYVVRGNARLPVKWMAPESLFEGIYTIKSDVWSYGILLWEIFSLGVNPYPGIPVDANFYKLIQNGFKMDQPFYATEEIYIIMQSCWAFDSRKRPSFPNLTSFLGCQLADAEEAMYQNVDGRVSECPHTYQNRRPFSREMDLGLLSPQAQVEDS
Chain of MAPK3 (human) (P27361 whole entry, looked up): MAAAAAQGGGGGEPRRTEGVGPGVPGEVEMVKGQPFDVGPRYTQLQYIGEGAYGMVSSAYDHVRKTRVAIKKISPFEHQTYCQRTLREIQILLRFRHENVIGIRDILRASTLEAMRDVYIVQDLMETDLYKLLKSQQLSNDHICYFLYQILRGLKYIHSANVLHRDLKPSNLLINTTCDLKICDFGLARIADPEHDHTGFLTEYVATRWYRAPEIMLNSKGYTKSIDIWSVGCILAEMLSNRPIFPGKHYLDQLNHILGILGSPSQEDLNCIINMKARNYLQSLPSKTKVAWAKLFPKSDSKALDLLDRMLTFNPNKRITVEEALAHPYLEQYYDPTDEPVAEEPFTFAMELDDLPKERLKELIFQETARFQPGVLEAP
Chain of FYN (human) (P06241 whole entry, looked up): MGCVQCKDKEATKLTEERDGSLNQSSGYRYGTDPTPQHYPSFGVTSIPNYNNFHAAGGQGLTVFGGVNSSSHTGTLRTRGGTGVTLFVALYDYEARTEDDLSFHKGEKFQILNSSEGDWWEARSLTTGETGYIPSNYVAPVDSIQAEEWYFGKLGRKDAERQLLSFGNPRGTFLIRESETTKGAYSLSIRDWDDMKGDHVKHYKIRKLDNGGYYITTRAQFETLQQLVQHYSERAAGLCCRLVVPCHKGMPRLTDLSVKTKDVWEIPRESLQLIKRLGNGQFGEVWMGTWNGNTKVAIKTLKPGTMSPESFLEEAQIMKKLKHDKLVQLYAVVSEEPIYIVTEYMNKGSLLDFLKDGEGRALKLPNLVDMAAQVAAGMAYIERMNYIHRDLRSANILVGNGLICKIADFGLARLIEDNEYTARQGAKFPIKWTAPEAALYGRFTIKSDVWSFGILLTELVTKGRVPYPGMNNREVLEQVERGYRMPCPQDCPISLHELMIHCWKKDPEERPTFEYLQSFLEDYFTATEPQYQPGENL
Chain of AXL (human) (P30530 whole entry, looked up): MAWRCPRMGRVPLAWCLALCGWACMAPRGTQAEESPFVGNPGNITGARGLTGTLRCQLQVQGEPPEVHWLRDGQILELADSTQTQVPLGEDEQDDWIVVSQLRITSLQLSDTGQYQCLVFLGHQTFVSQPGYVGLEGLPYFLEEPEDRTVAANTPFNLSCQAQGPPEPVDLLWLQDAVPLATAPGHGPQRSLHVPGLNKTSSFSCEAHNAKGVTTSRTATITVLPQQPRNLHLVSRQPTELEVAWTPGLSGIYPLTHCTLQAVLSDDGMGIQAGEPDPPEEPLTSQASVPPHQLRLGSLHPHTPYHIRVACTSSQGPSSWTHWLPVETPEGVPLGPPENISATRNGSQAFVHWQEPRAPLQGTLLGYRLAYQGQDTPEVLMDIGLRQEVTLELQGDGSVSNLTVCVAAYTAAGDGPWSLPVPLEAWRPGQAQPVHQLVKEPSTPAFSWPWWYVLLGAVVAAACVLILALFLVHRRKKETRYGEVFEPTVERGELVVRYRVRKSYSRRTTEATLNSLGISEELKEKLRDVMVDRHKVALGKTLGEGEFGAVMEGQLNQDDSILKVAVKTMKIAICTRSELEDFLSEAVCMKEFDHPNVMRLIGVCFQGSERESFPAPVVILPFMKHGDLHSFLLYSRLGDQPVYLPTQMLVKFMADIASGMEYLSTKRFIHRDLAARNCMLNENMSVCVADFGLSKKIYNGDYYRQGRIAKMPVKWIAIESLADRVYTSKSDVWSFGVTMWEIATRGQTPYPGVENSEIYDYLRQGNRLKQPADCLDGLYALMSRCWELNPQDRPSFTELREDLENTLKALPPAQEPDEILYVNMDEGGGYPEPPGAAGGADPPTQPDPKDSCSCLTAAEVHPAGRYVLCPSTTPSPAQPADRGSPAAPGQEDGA
Chain of SGK3 (human) (Q96BR1 whole entry, looked up): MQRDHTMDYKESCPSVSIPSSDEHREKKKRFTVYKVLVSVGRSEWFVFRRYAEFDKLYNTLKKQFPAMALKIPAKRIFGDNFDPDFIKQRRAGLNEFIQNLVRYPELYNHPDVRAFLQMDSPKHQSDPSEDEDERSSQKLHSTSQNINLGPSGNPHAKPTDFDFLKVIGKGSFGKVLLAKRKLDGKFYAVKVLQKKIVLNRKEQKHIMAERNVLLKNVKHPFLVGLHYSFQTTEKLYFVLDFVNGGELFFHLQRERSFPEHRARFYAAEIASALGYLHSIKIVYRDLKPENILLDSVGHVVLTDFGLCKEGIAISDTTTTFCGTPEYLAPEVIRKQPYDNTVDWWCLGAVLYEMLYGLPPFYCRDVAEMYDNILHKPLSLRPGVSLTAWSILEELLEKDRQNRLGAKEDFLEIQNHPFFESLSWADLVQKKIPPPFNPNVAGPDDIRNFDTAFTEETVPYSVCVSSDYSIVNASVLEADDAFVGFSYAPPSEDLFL
Chain of SGK2 (human) (Q9HBY8 whole entry, looked up): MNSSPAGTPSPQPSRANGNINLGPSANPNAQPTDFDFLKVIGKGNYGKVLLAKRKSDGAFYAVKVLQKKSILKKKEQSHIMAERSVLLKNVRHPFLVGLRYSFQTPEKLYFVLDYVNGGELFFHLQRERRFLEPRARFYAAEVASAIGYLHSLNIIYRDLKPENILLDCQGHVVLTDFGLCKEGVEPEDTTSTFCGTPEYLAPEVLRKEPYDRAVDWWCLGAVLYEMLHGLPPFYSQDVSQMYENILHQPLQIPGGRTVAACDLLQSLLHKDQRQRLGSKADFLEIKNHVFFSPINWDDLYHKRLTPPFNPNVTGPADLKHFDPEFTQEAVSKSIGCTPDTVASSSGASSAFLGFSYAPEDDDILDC

SMILES: O=c1c2ccccc2[nH]c(=S)n1CCN1CCC(=C(c2ccc(F)cc2)c2ccc(F)cc2)CC1
- residual activity [1]: 91.7%
- residual activity [2]: 105%
- residual activity [3]: 96.8%
- residual activity [4]: 99%
- residual activity [5]: 98.2%
- residual activity [6]: 102%
- residual activity [7]: 108%
- residual activity [8]: 106%
- residual activity [9]: 97.7%
- residual activity [10]: 102%
- residual activity [11]: 98.8%
- residual activity [12]: 95.2%
- residual activity [13]: 104%
- residual activity [14]: 102%
- residual activity [15]: 107%
- residual activity [16]: 103%
- residual activity [17]: 111%
- residual activity [18]: 95.4%
- residual activity [19]: 112%
- residual activity [20]: 99.3%
- residual activity [21]: 99%
- residual activity [22]: 106%
- residual activity [23]: 99%
- residual activity [24]: 105%
- residual activity [25]: 97%
- residual activity [26]: 102%
- residual activity [27]: 114%
- residual activity [28]: 107%
- residual activity [29]: 108%
- residual activity [30]: 100%
- residual activity [31]: 96.3%
- residual activity [32]: 98.5%
- residual activity [33]: 96.7%
- residual activity [34]: 106%
- residual activity [35]: 103%
- residual activity [36]: 105%
- residual activity [37]: 99.1%
- residual activity [38]: 114%
- residual activity [39]: 93.4%
- residual activity [40]: 103%
- residual activity [41]: 107%
- residual activity [42]: 95.9%

SMILES: Cc1cc(Nc2nc(-c3ccccc3)nc3ccccc23)n[nH]1
- residual activity [1]: 101%
- residual activity [2]: 108%
- residual activity [3]: 95%
- residual activity [4]: 94.4%
- residual activity [5]: 58.4%
- residual activity [6]: 89.1%
- residual activity [7]: 69.1%
- residual activity [8]: 94.6%
- residual activity [9]: 15%
- residual activity [10]: 98.2%
- residual activity [11]: 108%
- residual activity [12]: 31.6%
- residual activity [13]: 10.5%
- residual activity [14]: 40%
- residual activity [15]: 92.1%
- residual activity [16]: 119%
- residual activity [17]: 75.8%
- residual activity [18]: 90.5%
- residual activity [19]: 27.9%
- residual activity [20]: 96.8%
- residual activity [21]: 86.8%
- residual activity [22]: 106%
- residual activity [23]: 103%
- residual activity [24]: 80.8%
- residual activity [25]: 92.4%
- residual activity [26]: 83.5%
- residual activity [27]: 130%
- residual activity [28]: 95.4%
- residual activity [29]: 130%
- residual activity [30]: 98.6%
- residual activity [31]: 82.6%
- residual activity [32]: 61.4%
- residual activity [33]: 99.8%
- residual activity [34]: 8.76%
- residual activity [35]: 108%
- residual activity [36]: 70.5%
- residual activity [37]: 99.7%
- residual activity [38]: 104%
- residual activity [39]: 66%
- residual activity [40]: 58%
- residual activity [41]: 34.3%
- residual activity [42]: 81%
